This note sets out measurements from patent US20050209157A1, “Short bioactive peptides and methods for their use” (priority 2001, published 2005).

“Also recorded” adds a separate entry of the source. No end group written: not given here.

For data set [1], the system named is S. typhimurium 14028S. The data set is classed as cell-based, Salmonella typhimurium. The following applies: mean of three; 16 to 20 hours at 35° C.; in µg/mL.
In data set [2] the test system is human leukocyte (WBC) cells. The data set is described as follows: Stimulation and proliferation of leukocytes, Alamar Blue. The note with it: compared to untreated positive control cells; Alamar Blue. It is filed as cell-based. (In general: Resazurin is reduced to fluorescent resorufin, in cell work by metabolically active cells.)
In data set [3] the test system is S. pyogenes ATCC19615. The data set is described as follows: Antimicrobial assays II, NCCLS broth microdilution MIC. The data set is classed as cell-based, Streptococcus pyogenes. The following applies: mean of three, in µg/mL.
For data set [4], the system named is P. acne ATCC 6919. The description is as above. The data set is classed as cell-based, Propionibacterium acnes. The note with it: mean of three, in µg/mL.
Data set [5] in a line: in vitro. It is filed as cell-based, human. The note with it: human, human red blood cells, pH 7, hemolytic assay, concentration at 50% hemolysis, 1 hour at 37° C.; read-out: LD50.
Data set [6] concerns hairless rat skin burn wound. The data set can be described thus: In vivo wound healing, TCA chemically induced skin burn wound. The following applies: for Epidermal thickening / Fibroblast cells in test area / Inflammatory response area / Leukocyte cells in test area / Wound closure: rat model, TCA burn treated by peptide; for Wound closure: 26 days. An excerpt:
The hairless rat was chosen as a suitable test model. Female hairless rats of 100 to 150 grams weight and 8 to 12 weeks age were used in the study.
As an alternative, 70% trichloroacetic (TCA) dissolved in 70% ethanol was employed to induce the dermal erosion patches. […] As the chemical burn agent, the TCA treatment inflicted on the rats far less trauma and mortality than occurred with the Phenol model.
The experimental Protocol procedure steps were as follows: • 1. The animal was anesthetized (40 mg/kg Phenobarbital). • 2. Color photographs of the animal's back (with six separate peels) were taken before each treatment and daily thereafter. • 3. Rat skin surface was prepared by wiping with 70% ethanol. Filter paper discs (1.1 cm diameter) were soaked in 70% TCA/ethanol. • 4. The discs were placed on the back of the hairless rat for 30 minutes [6 disks providing for 2 control (no peptide treatment) disks and 4 disks for peels to receive peptide treatment.] • 5. After a 30 minute burn the discs were removed. Twenty four hours later, different peptide solutions (1500 ppm in saline) were applied to four peels, and saline was applied to the two control peels. • 6. Peptide solutions (and saline for the controls) were applied to the six wounds with a soft brush each day thereafter. • 7. It took approximately one month for the wounds to heal (complete skin closure with stabilized epidermis), after which the animal was sacrificed. • 8. The treated skin was harvested, section stained with trichrome, and mounted on slides.
The percentage of wound closure for each peel (six sites) was measured each day until the animal was sacrificed. The percentage closure was determined by measuring on the animal photographs the area of the remaining scab relative to the area of the initial scar after the burn. These measurements were made by digitizing and analyzing the peels using the Sigma Plot ProScan 4 program.
This provided a measure of the post-TCA burn treatment of the inflammatory response in each peel site.
The extent of epidermal thickening (hyperkeratosis) at each site was also determined by measurement with the Sigma Plot program applied to the stained section slides of the various wound areas and the normal untreated skin (control) surrounding the peels. At magnifications of 100× to 320×, the microphotographs of the color slides provided a powerful tool for such quantification of the extent of hyperkeratosis evident in each peel.
Treatment of the section slides with selective stains produced identifiable evidence of the presence of both leukocyte and fibroblast cells in the wound areas. This was also quantified by the Sigma Plot program.
The above described animal model and protocols were employed in the testing of approximately 20 of the peptides listed in Table 48 (and other peptides for comparison) as preferred FLAK peptides for wound healing.

Data set [7] can be described thus: Solubility of peptides in sheep serum. The data set is classed as physicochemical.

On to “MPKWKVFKKIEKVGRNIRNGIVKAGPAIAVLGEAKALG-NH2 [P12, reference compound]”, for which the “S. typhimurium 14028S MIC” value in data set [1] is reported as 4. In data set [2], the “stimulatory and/or inhibitory action on growth of human leukocyte (WBC) cells” value is listed as “stimulatory (and/or proliferative) at all concentrations through 500 μg/ml”.
FALKALKKLKKALKKAL-NH2 [P153]: the “S. pyogenes MIC” value in data set [3] is 2. The “P. acne MIC” value in data set [4] was determined as 4. In data set [5], the HC50 at 1 h was determined as 800 µg/mL. Also, the “rate of wound closure” value in data set [6] (hairless rat, full wound closure at 26 days) is “small advantage in rate of wound closure over the other peptides and no peptide”. Moreover, the “ability to limit post-TCA burn inflammatory responses” value in data set [6] (hairless rat, peptide solutions 1500 ppm in saline, topical daily) is recorded as “superior in this respect”. For the same substance, in data set [6] (hairless rat, peptide solutions 1500 ppm in saline, topical daily, listed as SEQ ID NO:115), the “hyperkeratosis (epidermal thickening)” value is on record as “lowest evidence of hyperkeratosis (epidermal thickening); also recorded: substantially no hyperkeratosis as compared to the TCA burn untreated control”. Further, in data set [6], the Epidermal thickening is 25 % of control (TCA only), the “Fibroblast cells in test area” value is given as 350 % of normal skin, the Inflammatory response area was 7 % of healed scar and the “Leukocyte cells in test area” value was 235 % of normal skin. Moreover, the Wound closure in data set [6] is 99.1 % of initial wound. In addition, the Solubility (usually the dissolved amount per volume that the medium holds) in data set [7] (sheep serum, […], 70% serum) was “Soluble”. Also, the Solubility in data set [7] (sheep, 70% sheep serum) is no less than 1280 µg/mL.
Consider “FAVGLRAIKRALKKLRRGVRKVAKDL-NH2 [P157, reference compound]”, for which the “S. pyogenes MIC” value in data set [3] was found to be 8. For the same substance, in data set [4], the “P. acne MIC” value was determined as 4. For the same substance, the “S. typhimurium 14028S MIC” value in data set [1] is recorded as 8. For the same substance, in data set [5], the HC50 at 1 h came out at 850 µg/mL. In addition, in data set [6], the Epidermal thickening was 80 % of control (TCA only), the “Fibroblast cells in test area” value was 450 % of normal skin, the Inflammatory response area is 25 % of healed scar and the “Leukocyte cells in test area” value is 265 % of normal skin. Moreover, the Wound closure in data set [6] is given as 95.2 % of initial wound.
